# Experimental data as given in patent US8263791B2, “Method and reagent for protein analysis” (National Institute of Advanced Industrial Science and …, priority 2008, dated 2012).
# Several values for one entry are separate records, joined by “and”; a condition that tells them apart may be missing. Equal entries are not always repeated.
# Key:
# [1] = system: Protein Standard Mixture IV (ovotransferrin, albumin, ovalbumin, carboanhydrase, myoglobin, cytochrome C); experiment: Evaluation of protein detection using Compound 1 and Compound 2 (staining after electrophoresis, Tween80); parameters: key to Detection: +: All bands could be detected.; −: At least one band could not be detected; details: for Detection / Detection limit (protein per band that could be detected): compound 60 μg/mL; for Detection limit (protein per band that could be detected): 1% Tween80 before and after staining
# Protocol: (§1) Two (2) mL of a stock buffer (a mixture of purified water (4.2 mL), 0.5 M Tris-hydrochloric acid buffer (pH 8.6) (1.0 mL), glycerol (0.8 mL), 100 g/L sodium dodecyl sulfate (1.6 mL), and 2-mercaptoethanol (0.4 mL)) was added to 2 mg of a commercially available molecular weight marker (Protein Standard Mixture IV; Merck & Co., Inc.). The mixture was heated in boiling water for 2 minutes and then cooled. Thirty (30) μL each of the resultant was dispensed in a 0.5-mL microtube and then cryopreserved at −80° C. until the use thereof. A sample diluent (a mixture of purified water (3.8 mL), 0.5 M Tris-hydrochloric acid buffer (pH 8.6) (1.0 mL), glycerol (0.8 mL), 100 g/L sodium dodecyl sulfate (1.6 mL), and 5 g/L bromophenol blue (0.8 mL)) was added to the thawed molecular weight marker, so that a dilution series with protein concentrations ranging from 0.4 ng/μL to 200 ng/μL was prepared.
# (§2) The marker contained, in terms of mass, equal amounts of ovotransferrin (78 kDa), albumin (66.3 kDa), ovalbumin (42.7 kDa), carboanhydrase (30 kDa), myoglobin (16.9 kDa), and cytochrome C (12.4 kDa).
# (§3) • Electrophoresis apparatus: RAPIDAS-Mini-Slab electrophoresis chamber AE6450 (ATTO Corporation) • Polyacrylamide gel: Multigel II mini 10/20 (13W) (COSMO BIO Co., Ltd.) • Buffer for electrophoresis: 27.2 mM Tris (hydroxymethyl) aminomethane, 192 mM glycine, 3.5 mM Sodium dodecyl sulfate (pH 8.3) • Fluorescence imaging analyzer: Light capture II (ATTO Corporation)
# (§4) Each sample of the dilution series prepared in (1) above was applied to a gel at 5 μL/well (lane 1: 167 ng of protein/band; lane 2: 83.3 ng/band; lane 3: 41.7 ng/band; lane 4: 20.8 ng/band; lane 5: 10.4 ng/band; lane 6: 5.2 ng/band; lane 7: 2.6 ng/band; lane 8: 1.3 ng/band; lane 9: 0.7 ng/band; and lane 10: 0.4 ng/band) and then subjected to electrophoresis with constant current of 30 mA for 45 minutes.
# (§5) Protein detection was carried out using Compound 1 and Compound 2 synthesized in Example 1 under analysis conditions described in Example 3. After electrophoresis, the gel was first immersed in 1% Tween80 aqueous solution for 20 minutes and then immersed in a buffer containing Compound 1 (60 μg/mL) or Compound 2 (60 μg/mL) for 10 minutes. Subsequently, the gel was transferred to and immersed in a container containing a 1% Tween80 aqueous solution for 30 minutes. […] The total time needed for treatment was 60 minutes. The gel was analyzed using a fluorescence imaging analyzer. When Compound 1 was used, bands containing 2.6 ng or more of proteins could be detected. Compared with the result, the detection limit was 20 ng in the case of Compound 2.
# [2] = Measurement of maximum absorption wavelength and maximum fluorescence wavelength; type: physicochemical; details: 25 μg/mL in purified water
# Protocol: Compound 1 and Compound 2 were separately dissolved in purified water at a concentration of 25 μg/mL. The absorption spectra at a wavelength ranging from 200 nm to 800 nm and the fluorescence spectra at a wavelength ranging from 450 nm to 600 nm were measured. The absorption spectra were measured using U3310 (Hitachi High-Technologies Corporation) and the fluorescence spectra were measured using RF-1500 (Shimadzu Corporation).
# [3] = system: Protein Standard Mixture IV (ovotransferrin, albumin, ovalbumin, carboanhydrase, myoglobin, cytochrome C); experiment: Protein detection on SDS-PAGE gel by staining after electrophoresis, varying solutions (I)/(II); details: 100 μg/mL
# Protocol: as §1, §2, §3
# Light source: green LED (center wavelength: 525 nm)
# Cut filter: R-60 (550 nm).
# as §4
# (§6) After electrophoresis, the gel was immediately immersed in a solution (I) (purified water, 1% Tween80 aqueous solution, or 1% Tween20 aqueous solution) for a predetermined period of time (20 minutes or 30 minutes). Subsequently, the gel was transferred to another container and then a buffer (purified water/25 mM phosphate buffer (pH 2.5)/methanol=45/45/10 (v/v)) in which Compound 1 (100 μg/mL) had been dissolved was added. After being left to stand for 10 minutes, the gel was transferred to another container and then immersed in a solution (II) (purified water, 1% Tween80 aqueous solution, or 1% Tween20 aqueous solution) for decoloration.
# [4] = system: Protein Standard Mixture IV (ovotransferrin, albumin, ovalbumin, carboanhydrase, myoglobin, cytochrome C); experiment: Protein detection with staining carried out during electrophoresis; parameters: key to Detection: +: All bands could be detected.; −: At least one band could not be detected; details: compound 15 μg/mL in electrophoresis buffer
# Protocol: Compound 1 or Compound 2 were dissolved in a buffer for electrophoresis (27.2 mM Tris (hydroxymethyl)aminomethane, 192 mM glycine, and 3.5 mM sodium dodecyl sulfate (pH 8.3)) at a concentration of 15 μg/mL. With the use of the above buffer, the other conditions identical to those described in Example 3 were employed to carry out electrophoresis. After completion of electrophoresis, the gel was transferred to a container containing 1% Tween80 aqueous solution, left to stand for 40 minutes, and then analyzed using a fluorescence imaging analyzer. When Compound 1 was used, bands containing 5.2 ng or more of a protein could be detected.
# [5] = Water solubility / precipitation in the staining solution; type: physicochemical
# Protocol: as §6, §5
# (§7) After electrophoresis, the gel was immediately immersed in distilled water for 20 to 30 minutes. Subsequently, the gel was transferred to another container and then a staining solution (distilled water:methanol=1:1 (v/v)) in which Compound 3 (100 μg/mL) had been dissolved was added. After 30 minutes of immersion, the gel was transferred to another container and then immersed in a wash solution (water:methanol=90:10 (v/v)) for decoloration. The gel was observed using a fluorescence imaging analyzer.
# BSA = target: T1, BSA (Bos taurus, UniProt P02769); experiment: Evaluation of protein detection using Compound 3; parameters: key to Detection: +: Band could be detected.; −: No band could be detected
# T1 construct: purchased PIERCE
# T1 sequence (P02769 25-607): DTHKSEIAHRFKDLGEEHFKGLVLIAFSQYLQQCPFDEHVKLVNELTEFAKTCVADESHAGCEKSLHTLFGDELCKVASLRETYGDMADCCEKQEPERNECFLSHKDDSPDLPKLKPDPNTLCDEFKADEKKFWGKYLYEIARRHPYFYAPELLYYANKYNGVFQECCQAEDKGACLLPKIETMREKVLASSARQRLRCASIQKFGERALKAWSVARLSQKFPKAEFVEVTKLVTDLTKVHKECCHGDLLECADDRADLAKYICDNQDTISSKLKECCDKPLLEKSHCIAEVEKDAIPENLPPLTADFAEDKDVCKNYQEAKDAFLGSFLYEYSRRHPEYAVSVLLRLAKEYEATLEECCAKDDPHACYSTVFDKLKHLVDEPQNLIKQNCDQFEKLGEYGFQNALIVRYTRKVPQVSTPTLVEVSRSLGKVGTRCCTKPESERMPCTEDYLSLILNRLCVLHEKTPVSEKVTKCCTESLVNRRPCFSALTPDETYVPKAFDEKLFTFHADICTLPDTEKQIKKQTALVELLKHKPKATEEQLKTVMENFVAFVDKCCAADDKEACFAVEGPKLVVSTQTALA
# Protocol: Protein samples were prepared as follows: Sample buffer (0.0625 M Tris-HCl (pH 6.8), 5% 2-mercaptoethanol, 2% SDS, 20% glycerol, and 0.005% BPB) was added to 2.0 mg/mL commercially available BSA (PIERCE). to dilute it to concentrations of 200, 60, 30, 12, 6, 3, and 0.2 ng/μL, respectively. These protein samples were heated at 80° C. for 5 minutes and then left to stand to cool.
# Conditions for electrophoresis are as follows: • Electrophoresis apparatus: ERICA XVE-001C (DRC Co., Ltd.) • Polyacrylamide gel: XV PANTERA Gel (DRC Co., Ltd.) • Buffer for electrophoresis: electrophoresis buffer attached to XV PANTERA Gel • Fluorescence imaging analyzer: LS400 (TECAN GROUP LTD) • Excitation wavelength: 543 nm; detection wavelength: 590 nm.
# Each of the above prepared samples was applied to a gel at 5 μL/well (1000, 300, 150, 60, 30, 15, and 1 ng/band, respectively), followed by electrophoresis.
# as §7
Compound,"Detection ([1]; Lane 1, protein 167 ng/band)","Detection ([1]; Lane 2, protein 83.3 ng/band)","Detection ([1]; Lane 3, protein 41.7 ng/band)","Detection ([1]; Lane 4, protein 20.8 ng/band)","Detection ([1]; Lane 5, protein 10.4 ng/band)","Detection ([1]; Lane 6, protein 5.2 ng/band)","Detection ([1]; Lane 7, protein 2.6 ng/band)","Detection ([1]; Lane 8, protein 1.3 ng/band)","Detection ([1]; Lane 9, protein 0.7 ng/band)","Detection ([1]; Lane 10, protein 0.4 ng/band)",Detection limit (protein per band that could be detected) [1] [ng],Excitation wavelength for maximum fluorescence [2] [nm],Maximum absorption wavelength [2],Maximum fluorescence wavelength [2] [nm],"Detection ([4]; Lane 1, protein 167 ng/band)","Detection ([4]; Lane 2, protein 83.3 ng/band)","Detection ([4]; Lane 3, protein 41.7 ng/band)","Detection ([4]; Lane 4, protein 20.8 ng/band)","Detection ([4]; Lane 5, protein 10.4 ng/band)","Detection ([4]; Lane 6, protein 5.2 ng/band)",also measured
"N#CC(C#N)=C1C=C(/C=C/c2ccccc2S(=O)(=O)[O-])OC(/C=C/c2ccccc2S(=O)(=O)[O-])=C1.[Na+].[Na+] [Compound 1, 2,2′-(1E,1′E)-2,2′-(4-(dicyanomethylene)-4H-pyrane-2,6-diyl)bis(ethene-2,1-diyl)bis(sodium benzenesulfonate)salt]",+,+,+,+,+,+,+,−,−,−,≥ 2.6,444,293 nm and 380 nm,516,+,+,+,+,+,+,"Relationship between protein concentration of each band and fluorescence intensity ([1]; FIG. 2, all proteins of the marker): no differences due to protein type were observed; Detection sensitivity ([3]; Conditions 1: solution (I) purified water, solution (II) purified water): 5 ng; Detection sensitivity ([3]; Conditions 2: solution (I) Tween80, solution (II) purified water): 5 ng; Detection sensitivity ([3]; Conditions 3: solution (I) purified water, solution (II) Tween80): 5 ng; Detection sensitivity ([3]; Conditions 4: solution (I) Tween80, solution (II) Tween80): 5 ng; Detection sensitivity ([3]; Conditions 5: solution (I) Tween20, solution (II) Tween20): 10 ng; Detection ([4]; Lane 7, protein 2.6 ng/band): +; Detection ([4]; Lane 8, protein 1.3 ng/band): −; Detection ([4]; Lane 9, protein 0.7 ng/band): −; Detection ([4]; Lane 10, protein 0.4 ng/band): −; Protein per band that could be detected ([4]; 1% Tween80 40 minutes): ≥ 5.2 ng; Precipitation in the solutions during staining ([5]; 60 μg/mL in buffer, Example 4): no precipitation; Precipitation in the solutions during staining ([5]; 100 μg/mL in purified water/25 mM phosphate buffer (pH 2.5)/methanol=45/45/10): no precipitation"
"CC1=CC(=C(C#N)C#N)C=C(/C=C/c2ccccc2S(=O)(=O)[O-])O1.[Na+] [Compound 2, (E)-2-(2-(4-(dicyanomethylene)-6-methyl-4H-pyrane-2-yl)vinyl)sodium Benzenesulfonate]",+,+,+,+,−,−,−,−,−,−,20,440,388 nm,511,−,−,−,−,−,−,"Detection ([4]; Lane 7, protein 2.6 ng/band): −; Detection ([4]; Lane 8, protein 1.3 ng/band): −; Detection ([4]; Lane 9, protein 0.7 ng/band): −; Detection ([4]; Lane 10, protein 0.4 ng/band): −; Protein detection (in words) ([4]; 1% Tween80 40 minutes): proteins other than cytochrome C could not be detected"
CC1=CC(=C(C#N)C#N)C=C(/C=C/c2ccc(O)c3ccccc23)O1 [Compound 3],,,,,,,,,,,,,,,,,,,,,"Sensitivity lower than that of the compound of the present invention (BSA): ≥ 10 times; Detection (BSA; BSA 1 ng/band, compound 100 μg/mL): −; Detection (BSA; BSA 15 ng/band, compound 100 μg/mL): −; Detection (BSA; BSA 30 ng/band, compound 100 μg/mL): +; Detection (BSA; BSA 60 ng/band, compound 100 μg/mL): +; Detection (BSA; BSA 150 ng/band, compound 100 μg/mL): +; Detection (BSA; BSA 300 ng/band, compound 100 μg/mL): +; Detection (BSA; BSA 1000 ng/band, compound 100 μg/mL): +; Protein detection sensitivity (BSA; BSA, compound 100 μg/mL): 30 ng; False positive spots after washing step (BSA; wash solution water:methanol=90:10): insoluble matter adhering to the gel appeared as false positive spots; Solubility in water [5]: hardly soluble in water; Precipitation in the staining solution during staining ([5]; 100 μg/mL in distilled water:methanol=1:1): precipitated in the staining solution"
